In article PMC4672351, “Drug-Drug Interaction Potentials of Tyrosine Kinase Inhibitors via Inhibition of UDP-Glucuronosyltransferases” (Scientific Reports, 2015):

Legend:
[1] = ref [17][40][45] axitinib, [38][39][46] imatinib, [41][42] lapatinib, [43][44] vandetanib, cited from earlier work; for Cmax: clinical oral dose: axitinib 5 mg/12 h, imatinib 400 mg/24 h, lapatinib 1250 mg/24 h, vandetanib 300 mg/24 h; for Absorption Rate Constant (ka) / Fraction absorbed (Fa) / Oral CL / t1/2: clinical
[2] = target: T1, UGT1A4 (Homo sapiens, UniProt P22310); assay: Inhibition of TFP glucuronidation by recombinant UGT1A4; conditions: for activity at 30 min, 100 µM: human
T1 sequence (P22310 29-534): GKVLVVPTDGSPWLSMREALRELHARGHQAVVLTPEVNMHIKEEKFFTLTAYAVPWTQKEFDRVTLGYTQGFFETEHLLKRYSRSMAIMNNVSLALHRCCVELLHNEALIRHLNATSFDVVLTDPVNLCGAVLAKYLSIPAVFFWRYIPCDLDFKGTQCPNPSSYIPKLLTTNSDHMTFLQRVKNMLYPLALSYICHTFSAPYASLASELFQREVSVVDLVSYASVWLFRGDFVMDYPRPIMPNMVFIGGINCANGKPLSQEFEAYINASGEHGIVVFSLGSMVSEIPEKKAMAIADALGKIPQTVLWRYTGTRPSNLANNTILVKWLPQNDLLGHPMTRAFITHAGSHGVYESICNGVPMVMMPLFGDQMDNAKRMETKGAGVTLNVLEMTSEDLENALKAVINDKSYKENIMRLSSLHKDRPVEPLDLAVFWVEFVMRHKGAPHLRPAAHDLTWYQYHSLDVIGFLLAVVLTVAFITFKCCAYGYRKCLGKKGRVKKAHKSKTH

[3] = target: T2, UGT1A1 (Homo sapiens, UniProt P22309); assay: Inhibition of 4-MU glucuronidation by recombinant UGT1A1; conditions: for activity at 120 min, 100 µM: human, recombinant UGT1A1, pH 7.4, probe 4-MU
T2 sequence (P22309 26-533): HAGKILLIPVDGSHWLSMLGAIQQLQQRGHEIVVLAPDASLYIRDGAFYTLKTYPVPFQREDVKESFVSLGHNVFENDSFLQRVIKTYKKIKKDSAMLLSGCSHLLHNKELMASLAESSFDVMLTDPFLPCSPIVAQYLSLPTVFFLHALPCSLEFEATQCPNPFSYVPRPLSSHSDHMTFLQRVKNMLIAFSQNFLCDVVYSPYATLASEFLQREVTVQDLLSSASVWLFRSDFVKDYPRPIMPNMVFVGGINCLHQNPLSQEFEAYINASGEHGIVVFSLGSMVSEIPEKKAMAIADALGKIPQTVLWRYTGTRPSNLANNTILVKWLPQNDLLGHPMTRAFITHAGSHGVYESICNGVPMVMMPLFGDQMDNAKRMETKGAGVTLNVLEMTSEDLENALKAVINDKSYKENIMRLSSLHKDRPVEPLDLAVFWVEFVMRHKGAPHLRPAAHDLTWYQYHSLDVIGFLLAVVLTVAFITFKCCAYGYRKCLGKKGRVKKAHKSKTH

[4] = target: T3, UGT1A6 (Homo sapiens, UniProt P19224); assay: Inhibition of 4-MU glucuronidation by recombinant UGT1A6; assay type: in vitro ADME; conditions: recombinant UGT1A6, pH 7.4, probe 4-MU, 100 μM inhibitor, 4-MU substrate, positive control diclofenac, read-out: Remaining activities (%) of UGT1A6
T3 construct: purchased BD Gentest (Woburn, MA); host or cells: baculovirus-infected insect cells
T3 sequence (P19224 27-532): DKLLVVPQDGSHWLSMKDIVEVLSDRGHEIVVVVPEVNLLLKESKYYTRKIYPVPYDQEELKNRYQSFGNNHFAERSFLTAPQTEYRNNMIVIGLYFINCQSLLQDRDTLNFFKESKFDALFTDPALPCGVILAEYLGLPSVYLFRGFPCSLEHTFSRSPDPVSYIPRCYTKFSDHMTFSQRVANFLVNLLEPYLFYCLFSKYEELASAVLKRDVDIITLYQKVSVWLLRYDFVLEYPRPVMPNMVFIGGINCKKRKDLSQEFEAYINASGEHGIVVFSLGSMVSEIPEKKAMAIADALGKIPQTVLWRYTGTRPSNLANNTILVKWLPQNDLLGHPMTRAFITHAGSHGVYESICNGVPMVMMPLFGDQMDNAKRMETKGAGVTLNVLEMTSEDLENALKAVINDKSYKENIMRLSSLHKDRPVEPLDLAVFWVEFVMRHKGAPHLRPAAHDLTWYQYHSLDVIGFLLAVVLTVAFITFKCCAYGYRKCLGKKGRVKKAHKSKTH

[5] = target: T4, UGT1A10 (Homo sapiens, UniProt Q9HAW8); assay: Inhibition of 4-MU glucuronidation by recombinant UGT1A10; conditions: recombinant UGT1A10, pH 7.4, probe 4-MU
T4 sequence (Q9HAW8 26-530): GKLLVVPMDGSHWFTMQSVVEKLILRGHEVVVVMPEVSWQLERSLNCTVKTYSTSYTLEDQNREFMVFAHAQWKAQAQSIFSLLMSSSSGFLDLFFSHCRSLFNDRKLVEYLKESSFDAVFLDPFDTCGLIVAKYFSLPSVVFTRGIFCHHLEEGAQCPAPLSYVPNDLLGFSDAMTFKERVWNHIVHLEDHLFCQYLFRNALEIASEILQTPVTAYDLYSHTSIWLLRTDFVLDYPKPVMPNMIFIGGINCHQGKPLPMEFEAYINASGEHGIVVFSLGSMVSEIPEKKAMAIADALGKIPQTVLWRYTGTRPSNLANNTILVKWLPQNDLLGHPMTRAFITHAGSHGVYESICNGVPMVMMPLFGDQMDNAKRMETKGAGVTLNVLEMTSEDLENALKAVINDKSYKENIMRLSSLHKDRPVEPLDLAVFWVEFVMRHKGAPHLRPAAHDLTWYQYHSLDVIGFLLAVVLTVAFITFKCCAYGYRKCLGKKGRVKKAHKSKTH

[6] = recombinant UGT1A4, pH 7.4, probe TFP (trifluoperazine)

Row | SMILES | Cmax [1] | Absorption Rate Constant (ka) [1] | Fraction absorbed (Fa) [1] | Oral CL [1] | t1/2 [1] | IC50 [2] | activity at 30 min, 100 µM ([2]; pH 7.4) | activity at 120 min, 100 µM [3] | activity at 30 min, 100 µM [4] | activity at 120 min, 100 µM [5] | Ki [2] | inhibition type, UGT1A4 ([2]; TFP substrate) | activity at 30 min, 100 µM [2, 6] | inhibition type, UGT1A1 ([3]; 4-MU substrate)
1 | CNC(=O)c1ccccc1Sc1ccc2c(/C=C/c3ccccn3)n[nH]c2c1 [Axitinib, axitinib] | 0.16 µM | 0.523 h⁻¹ | 0.88 | 45 L/h | 3.2 h | 14.2 ± 3.2 µM | 14.9 ± 1.8% | 56.7 ± 3.4% | 85.8 ± 3.5% | 55.5 ± 2.7% | – | – | – | –
2 | CS(=O)(=O)CCNCc1ccc(-c2ccc3ncnc(Nc4ccc(OCc5cccc(F)c5)c(Cl)c4)c3c2)o1 [Lapatinib, lapatinib] | 4.2 µM | 0.7 h⁻¹ | 0.73 | 114 L/h | 24 h | 3.8 ± 0.7 µM | – | 30.8 ± 11% | 88.4 ± 5.9% | 73.6 ± 4.8% | 36.4 ± 5 µM | mixed | 40.7 ± 1.9% | competitive
3 | COc1cc2c(Nc3ccc(Br)cc3F)ncnc2cc1OCC1CCN(C)CC1 [Vandetanib, vandetanib] | 3.32 µM | 0.3 h⁻¹ | 0.935 | 13.2 L/h | 456 h | – | – | 48.9 ± 4.9% | 55.1 ± 1.1% | 49 ± 0.4% | – | – | 62.8% | –
